Publication PMC6315541, “Nile Tilapia Derived Antimicrobial Peptide TP4 Exerts Antineoplastic Activity Through Microtubule Disruption” (Marine Drugs, 2018)
“Also recorded” adds a separate entry of the source.

What was measured:
A549 cells = test: Cell viability (CellTiter-Glo ATP assay) in A549 cells; assay type: cell-based, human; conditions: 24 h; for relative ATP levels (cell viability): CellTiter-Glo ATP assay, luminescence, mean ± SD of three independent assays, n ≥ 5 wells per dose; for cytotoxicity to A549 cells (in words): doses 3.35-20.12 µM, ATP assay, Figure 6A
Protocol: (§1) Figure 6 Loss of cancer-killing ability in TP4 mutants. (A) Cell viability in A549 cells was determined by the adenosine triphosphate (ATP) assay following treatment with varying doses of TP4 and TP4 mutants for 24 h. Multiple wells were analyzed for each assay. Results represent the mean ± SD. Statistical comparisons between groups were performed using two-way ANOVA: a, not significant; b, p < 0.05; d, p < 0.001. Statistical analyses are shown in Supplementary Table S1. (B) Cells were stained for TP4 (WT panel), FITC (MT-1 to MT-6 panels), α-Tubulin, and F-actin. Hoechst33342 was used for nuclei staining. Boxed regions are magnified in the furthest right panels. […] Bar: 20 μm.
The A549 cell line (Bioresource Collection and Research Center (BCRC) 60074) was purchased from the BCRC and cultured according to BCRC recommendations. For the cell viability and transfection assay, 4–5 × 10^3 cells were seeded into the wells of a 96-well plate and cultured overnight. Cells were then treated according to the indicated doses and times. Cell viability was quantified using the CellTiter-Glo® Luminescent Cell Viability Assay kit (ATP assay) (Madison, WI, USA) as previously described. The luminescent signal was measured using a photometer (SpectraMax® i3, Molecular Devices, Wals, Austria).
For the multi-well based assay, cells were plated at least in quadruplicate. Data were collected from independently repeated experiments (N ≥ 3) and were analyzed by Prism5 software (GraphPad Inc., La Jolla, CA, USA). Statistical significance was determined by a two-tailed Student’s t-test or one-way/two-way analysis of variance (ANOVA) with a Bonferroni post hoc test. Differences were considered statistically significant at p < 0.05. […]
Supplementary Table S1. Cellular toxicit y of TP 4 to A549 cells was evaluated b y cell viability. Results of statis tical tests on data in Figu re 6A are shown. Multiple wells were anal yzed for each ex periment (n ≥ 5 wells per do se). Results represent the mean ± SD from three independent assays. Statistical comparisons between mock versus TP4 treatment groups were performed using two -way ANOVA anal ysis with Bonferroni post-hoc test: a, not signi ficant; b, P < 0.05; c, P < 0.01; d, P < 0.001. […]
(A-G) Th e helical projection plot and s tructural model o f TP4 (A) and TP4 variants (MT-1 to MT-6, B-G ). The helical proj ecti on was produced b y an online helical wheel projection program (http://rzlab.ucr.edu/scripts/wheel/wheel.cgi). Amino acid residues are numbered and each amino acid is connected with lines to indicate its relative position along the helix. The hydrophobic residues are shown as diamonds ; h ydrophilic residues are circles. Residues with negative charge are shown as trian gles and positively charged residues are pentagons. Hydrophobicity is color coded. The

[1] = test system: microtubule network (α-Tubulin) in A549 cells; test: Immunocytochemistry of microtubule network and peptide uptake in A549 cells; assay type: cell-based, human; conditions: A549 cells; TP4 6.71 μM, 3 h; FITC-labeled mutants; Figure 6B
Protocol: To examine whether TP4 may affect microtubule dynamics, A549 cells were treated with TP4, and cytoskeletal elements were analyzed by immunocytochemistry (ICC). […] We then asked whether TP4 treatment may influence tubulin protein levels by performing Western blots on lysates from A549 cells that had been treated with vehicle or TP4. […] We next conducted a microtubule regrowth assay to further address whether TP4 may disrupt microtubule polymerization. TP4 was applied to A549 cells that had been treated with or without Nocodazole (20 μM) treatment for 6 h, which completely depolymerizes the microtubule network. The repolymerization of microtubules was then initialized by the addition of fresh recovery medium, and regrowth was analyzed by ICC.
While the reduced toxicity may result from impaired binding to tubulin, it is also possible that such effects may be caused by conformational changes in the TP4 mutants, see Supplementary Figure S1C,D, which prevent intracellular penetration. To test this possibility, ICC was conducted to evaluate the cellular localization and the effects on microtubules. […] For both Gly and Ala substitution mutants, FITC-labeled TP4 mutants were able to be taken up intracellularly, see Figure 6B, panels MT-1 to MT-6. However, the microtubule network was only affected in MT-1- and MT-4-treated cells and not the other mutant-treated groups, as shown in Figure 6B.
as §1
Cells were stained with TP4 (1:1000), FITC (1:500, ThermoFisher Scientific, clone 1F8-1E4), α-Tubulin (1:500), and appropriate Alexa Flour conjugated secondary antibody (1:500; ThermoFisher Scientific, Eugene, OR, USA). Hochest33342 was used for nuclear staining, and Alexa Fluor 647-conjugated phalloidin (1:200, Thermo Fisher Scientific, Eugene, OR, USA) was used to stain F-actin. For the confocal microscopic analysis, samples were mounted with fluorescent mounting medium (ProLong Gold Antifade Reagent, ThermoFisher Scientific, Eugene, OR, USA) and images were obtained with a FV3000 laser-scanning confocal microscope (Olympus), using a 60 × objective lens (Plapon 60 × OSC2, N.A. 1.4, oil) with the 4′,6-diamidino-2-phenylindole (DAPI) ([…]), green fluorescent protein (GFP) (EX 470, EM 525 for enhanced GFP (EGFP)), and Cy5 ([…]) emission filters. FV31S software (Olympus, Tokyo, Japan) was used for image acquisition.

Substance	relative ATP levels (cell viability) (A549 cells; 3.35 µM)	relative ATP levels (cell viability) (A549 cells; 5.03 µM)	relative ATP levels (cell viability) (A549 cells; 6.71 µM)	relative ATP levels (cell viability) (A549 cells; 20.12 µM)	cytotoxicity to A549 cells (in words) (A549 cells)	effect on microtubule network (α-Tubulin ICC) [1]
MT-1: TP4 mutant, Phe1 to Gly (GIHHIIGGLFSAGKAIHRLIRRRRR)	0.931±0.160	1.044±0.280	0.852 ± 0.145	0.003±0.001	decreased cytotoxicity	affected; also recorded: microtubule abnormalities were observed
MT-4: TP4 mutant, Phe1 to Ala (AIHHIIGGLFSAGKAIHRLIRRRRR)	0.454±0.169	0.241±0.094	0.070±0.045	0.001±0.007	strongly cytotoxic	affected; also recorded: microtubule abnormalities were observed
